Bounds are passed on as bounds.

What all share (format): cell-based
One data set concerns HL-60. The data set can be described thus: Cytotoxicity against human HL60 cells by MTT assay. A general note: Tetrazolium assays rely on reduction of a dye to a coloured formazan, in cell work by metabolically active cells.
Data set [1] is described as follows: Cytotoxicity against human MDA-MB435 cells by MTT assay. To be noted: mda-mb-435.
The test system of the next data set is SF-295. In words: Cytotoxicity against human SF295 cells by MTT assay.
The subject of another data set is HCT-8. In words: Cytotoxicity against human HCT8 cells by MTT assay.

On to `OC1\C=C/C=C/C=C/CC[C@H]2CN3CCCCCCCCCCCC[C@H]4C[C@H](CN(C1)C4)[C@@H]2CC3` (stereo partly specified), for which the Activity is 6.9 µg/mL in the data set on HL-60, 3.1 µg/mL in data set [1], 8.7 µg/mL with SF-295 and more than 25 µg/mL in the data set with HCT-8.
For `OC1/C=C\C=C/CCCCCC[C@H]2CN3CC/C=C\CCCCCCC4C[C@@H](CN(C1)C4)[C@H]2CC3` (stereo partly specified) [ARENOSCLERIN D] the same measures were 2.1 µg/mL, 1.2 µg/mL, 5.9 µg/mL and 6.2 µg/mL.
With `C1=C\CCCCC[C@H]2CN3CC/C=C\CCCCCC[C@@H]4C[C@@H](CN(CC/C=C\C/1)C4)[C@H]2CC3` [HALICLONACYCLAMINE F], the Activity came out at 2.2 µg/mL with HL-60, 1 µg/mL in data set [1], 4.5 µg/mL in the data set on SF-295 and 8.6 µg/mL in the data set on HCT-8.
Consider `O[C@H]1/C2=C\C/C=C/C=C\C=C/CCN3CC45CCCCCCCCCCCCN(CC1C4CC23)C5` (stereo partly specified) [MADANGAMINE F], for which the Activity with HL-60 was 16.7 µg/mL; in data set [1], 16.2 µg/mL; with SF-295, 19.8 µg/mL; with HCT-8 it was more than 25 µg/mL.

Values taken from ChEMBL document CHEMBL1142119, “Cytotoxic alkylpiperidine alkaloids from the Brazilian marine sponge Pachychalina alcaloidifera” (J Nat Prod, 2007).
